Measurements published in ChEMBL document CHEMBL3885881, “DrugMatrix”.

Species: Rattus norvegicus
Test: DrugMatrix - Regimen: Daily Repeat
Type: toxicity, organism-based, Sprague-Dawley
Design: regimen Daily Repeat, gender Male, age 6-8 weeks
Conditions: in vivo, po, route oral GAVAGE, vehicle 100 % SALINE
[1] = 0 mg/kg, 72 h, tissue Plasma, dose level Control, time 3 day
[2] = 0 mg/kg, 120 h, tissue Blood, dose level Control, time 5 day
[3] = 0 mg/kg, 120 h, tissue Plasma, dose level Control, time 5 day
[4] = 200 mg/kg, 72 h, tissue Blood, dose level Low, time 3 day
[5] = 200 mg/kg, 72 h, tissue Plasma, dose level Low, time 3 day
[6] = 200 mg/kg, 120 h, tissue Blood, dose level Low, time 5 day
[7] = 200 mg/kg, 120 h, tissue Plasma, dose level Low, time 5 day
[8] = 600 mg/kg, 72 h, tissue Blood, dose level High, time 3 day
[9] = 600 mg/kg, 72 h, tissue Plasma, dose level High, time 3 day
[10] = 600 mg/kg, 120 h, tissue Blood, dose level High, time 5 day
[11] = 600 mg/kg, 120 h, tissue Plasma, dose level High, time 5 day

## LEAD (II) ACETATE
[1]
  ALANINE AMINOTRANSFERASE: 50.67 u/L
  ALKALINE PHOSPHATASE: 356.33 u/L
  ASPARTATE AMINOTRANSFERASE: 78.17 u/L
  BLOOD UREA NITROGEN: 14.17 mg/dL
  CARBON DIOXIDE: 31.33 mmol/L
  CHLORIDE: 98.5 MEQ/L
  CHOLESTEROL: 76.5 mg/dL
  CREATINE PHOSPHOKINASE: 248.33 u/L
  CREATININE: 0.2 mg/dL
  LACTATE DEHYDROGENASE: 107 u/L
  LIPASE: 9.83 u/L
  PHOSPHORUS: 12.8 mg/dL
  POTASSIUM: 6.75 MEQ/L
  TOTAL BILIRUBIN: 0.18 mg/dL
  TOTAL PROTEIN: 5.98 G/DL
  URIC ACID: 1.42 mg/dL
[2]
  ABSOLUTE BASOPHIL: 0 CELLS/uL
  ABSOLUTE EOSINOPHIL: 0 CELLS/uL
  ABSOLUTE LYMPHOCYTE: 8681.17 CELLS/uL
  ABSOLUTE MONOCYTE: 79.83 CELLS/uL
  ABSOLUTE SEGMENTED NEUTROPHIL: 689 CELLS/uL
  BASOPHIL: 0%
  EOSINOPHIL: 0%
  ERYTHROCYTE COUNT: 5.49 x10E6/uL
  HEMATOCRIT: 33.55%
  HEMOGLOBIN: 13.1 G/DL
  LEUKOCYTE COUNT: 9.45 x10E3/uL
  LYMPHOCYTE: 92.33%
  MEAN CORPUSCULAR HEMOGLOBIN: 23.92 pg
  MEAN CORPUSCULAR HEMOGLOBIN CONCENTRATION: 39.07 G/DL
  MONOCYTE: 0.67%
  NEUTROPHIL: 7%
  NUCLEATED RED BLOOD CELLS: 0.17 /100WBC
  PLATELET COUNT: 1001.17 x10E3/uL
[3]
  ALANINE AMINOTRANSFERASE: 49.33 u/L
  ALKALINE PHOSPHATASE: 300.33 u/L
  ASPARTATE AMINOTRANSFERASE: 83.5 u/L
  BLOOD UREA NITROGEN: 16 mg/dL
  CHLORIDE: 100.5 MEQ/L
  CHOLESTEROL: 74.33 mg/dL
  CREATINE PHOSPHOKINASE: 489.67 u/L
  CREATININE: 0.35 mg/dL
  GLUCOSE: 151 mg/dL
  LACTATE DEHYDROGENASE: 133.67 u/L
  LIPASE: 11.17 u/L
  PHOSPHORUS: 10.88 mg/dL
  POTASSIUM: 5.5 MEQ/L
  SODIUM: 145.7 MEQ/L
  TOTAL BILIRUBIN: 0.2 mg/dL
  TOTAL PROTEIN: 6.05 G/DL
  URIC ACID: 0.68 mg/dL
[4]
  ABSOLUTE BASOPHIL: 0 CELLS/uL
  ABSOLUTE EOSINOPHIL: 42 CELLS/uL
  ABSOLUTE LYMPHOCYTE: 7845 CELLS/uL
  ABSOLUTE MONOCYTE: 45.67 CELLS/uL
  ABSOLUTE SEGMENTED NEUTROPHIL: 634 CELLS/uL
  BASOPHIL: 0%
  EOSINOPHIL: 0.67%
  ERYTHROCYTE COUNT: 5.3 x10E6/uL
  HEMATOCRIT: 32.4%
  HEMOGLOBIN: 12.73 G/DL
  LEUKOCYTE COUNT: 8.57 x10E3/uL
  LYMPHOCYTE: 91.67%
  MEAN CORPUSCULAR HEMOGLOBIN: 24.1 pg
  MONOCYTE: 0.67%
  NEUTROPHIL: 7%
  NUCLEATED RED BLOOD CELLS: 0.67 /100WBC
  PLATELET COUNT: 1060.33 x10E3/uL
[5]
  ALANINE AMINOTRANSFERASE: 44.33 u/L
  ALBUMIN: 4.1 G/DL
  ALKALINE PHOSPHATASE: 338.33 u/L
  ASPARTATE AMINOTRANSFERASE: 80.67 u/L
  BLOOD UREA NITROGEN: 14 mg/dL
  CHLORIDE: 100 MEQ/L
  CHOLESTEROL: 80 mg/dL
  CREATINE PHOSPHOKINASE: 412 u/L
  CREATININE: 0.48 mg/dL
  GLUCOSE: 189.33 mg/dL
  LACTATE DEHYDROGENASE: 140.33 u/L
  LIPASE: 11.67 u/L
  PHOSPHORUS: 13.53 mg/dL
  POTASSIUM: 5.59 MEQ/L
  TOTAL BILIRUBIN: 0.13 mg/dL
  TOTAL PROTEIN: 5.93 G/DL
  URIC ACID: 1.37 mg/dL
[6]
  ABSOLUTE BASOPHIL: 0 CELLS/uL
  ABSOLUTE EOSINOPHIL: 25 CELLS/uL
  ABSOLUTE MONOCYTE: 82.67 CELLS/uL
  ABSOLUTE SEGMENTED NEUTROPHIL: 668 CELLS/uL
  BASOPHIL: 0%
  EOSINOPHIL: 0.33%
  ERYTHROCYTE COUNT: 5.28 x10E6/uL
  HEMATOCRIT: 32.07%
  HEMOGLOBIN: 12.83 G/DL
  LEUKOCYTE COUNT: 11.1 x10E3/uL
  LYMPHOCYTE: 92.67%
  MEAN CORPUSCULAR HEMOGLOBIN: 24.3 pg
  MEAN CORPUSCULAR HEMOGLOBIN CONCENTRATION: 40.03 G/DL
  MONOCYTE: 0.67%
  NEUTROPHIL: 6.33%
  NUCLEATED RED BLOOD CELLS: 0.67 /100WBC
  PLATELET COUNT: 1339.67 x10E3/uL
[7]
  ALANINE AMINOTRANSFERASE: 57.33 u/L
  ALBUMIN: 3.9 G/DL
  ALKALINE PHOSPHATASE: 297 u/L
  ASPARTATE AMINOTRANSFERASE: 91 u/L
  BLOOD UREA NITROGEN: 14.33 mg/dL
  CARBON DIOXIDE: 30 mmol/L
  CHLORIDE: 99.33 MEQ/L
  CHOLESTEROL: 71.33 mg/dL
  CREATINE PHOSPHOKINASE: 225 u/L
  CREATININE: 0.46 mg/dL
  LACTATE DEHYDROGENASE: 122 u/L
  LIPASE: 9 u/L
  PHOSPHORUS: 10.9 mg/dL
  POTASSIUM: 5.95 MEQ/L
  TOTAL BILIRUBIN: 0.13 mg/dL
  TOTAL PROTEIN: 6.23 G/DL
  URIC ACID: 0.7 mg/dL
[8]
  ABSOLUTE BASOPHIL: 0 CELLS/uL
  ABSOLUTE EOSINOPHIL: 32.67 CELLS/uL
  ABSOLUTE LYMPHOCYTE: 9967.33 CELLS/uL
  ABSOLUTE MONOCYTE: 129.67 CELLS/uL
  ABSOLUTE SEGMENTED NEUTROPHIL: 570.33 CELLS/uL
  BASOPHIL: 0%
  EOSINOPHIL: 0.33%
  ERYTHROCYTE COUNT: 5.69 x10E6/uL
  HEMATOCRIT: 34.9%
  HEMOGLOBIN: 13.73 G/DL
  LEUKOCYTE COUNT: 10.7 x10E3/uL
  LYMPHOCYTE: 92.67%
  MEAN CORPUSCULAR HEMOGLOBIN: 24.13 pg
  NEUTROPHIL: 5.67%
  NUCLEATED RED BLOOD CELLS: 0.33 /100WBC
  PLATELET COUNT: 964.67 x10E3/uL
[9]
  ALANINE AMINOTRANSFERASE: 56.67 u/L
  ALKALINE PHOSPHATASE: 262 u/L
  ASPARTATE AMINOTRANSFERASE: 84.33 u/L
  BLOOD UREA NITROGEN: 13.33 mg/dL
  CHLORIDE: 99 MEQ/L
  CREATINE PHOSPHOKINASE: 319.33 u/L
  CREATININE: 0.55 mg/dL
  LACTATE DEHYDROGENASE: 97 u/L
  LIPASE: 14.33 u/L
  PHOSPHORUS: 11.57 mg/dL
  POTASSIUM: 5.33 MEQ/L
  TOTAL BILIRUBIN: 0.1 mg/dL
  TOTAL PROTEIN: 5.83 G/DL
  URIC ACID: 0.87 mg/dL
[10]
  ABSOLUTE BASOPHIL: 0 CELLS/uL
  ABSOLUTE EOSINOPHIL: 20.67 CELLS/uL
  ABSOLUTE LYMPHOCYTE: 6898.67 CELLS/uL
  ABSOLUTE MONOCYTE: 79.33 CELLS/uL
  ABSOLUTE SEGMENTED NEUTROPHIL: 568 CELLS/uL
  BASOPHIL: 0%
  EOSINOPHIL: 0.33%
  ERYTHROCYTE COUNT: 5.67 x10E6/uL
  HEMATOCRIT: 33.33%
  HEMOGLOBIN: 12.97 G/DL
  LEUKOCYTE COUNT: 7.57 x10E3/uL
  LYMPHOCYTE: 90.67%
  MEAN CORPUSCULAR HEMOGLOBIN: 22.87 pg
  MEAN CORPUSCULAR HEMOGLOBIN CONCENTRATION: 38.93 G/DL
  MEAN CORPUSCULAR VOLUME: 58.77 fL
  MONOCYTE: 1%
  NEUTROPHIL: 8%
  NUCLEATED RED BLOOD CELLS: 0 /100WBC
  PLATELET COUNT: 1398 x10E3/uL
[11]
  ALANINE AMINOTRANSFERASE: 48 u/L
  ALBUMIN: 4 G/DL
  ALKALINE PHOSPHATASE: 286.67 u/L
  ASPARTATE AMINOTRANSFERASE: 92.67 u/L
  BLOOD UREA NITROGEN: 13.33 mg/dL
  CHOLESTEROL: 76 mg/dL
  CREATINE PHOSPHOKINASE: 510.67 u/L
  CREATININE: 0.28 mg/dL
  GLUCOSE: 157.67 mg/dL
  LACTATE DEHYDROGENASE: 162.67 u/L
  LIPASE: 11 u/L
  POTASSIUM: 4.79 MEQ/L
  TOTAL BILIRUBIN: 0.13 mg/dL
  TOTAL PROTEIN: 5.6 G/DL
  URIC ACID: 0.33 mg/dL
